Article PMC6218115, “In Vitro Potency and Preclinical Pharmacokinetic Comparison of All-D-Enantiomeric Peptides Developed for the Treatment of Alzheimer’s Disease” (Journal of Alzheimer's Disease, 2018)
Non-standard residues stand in square brackets, D forms with d. Residues, ends and D or L forms follow the SMILES beside them.

Legend:
[1] = Pharmacokinetic concentration-time profiles and parameters after i.v. and p.o. administration; format: in vivo, C57Bl/6N mice; conditions: mice; for peptide concentration detected in the blood: 4 h after single oral administration of 10 mg/kg; for Cmax, brain / Cmax, plasma: 3H-label LSC; for Cmax, plasma: 3 mice/time point; for AUC %ID,0 - 1440, plasma: non-compartmental analysis; for F (AUC %ID), oral bioavailability: p.o. 10 mg/kg (ANK6, tANK6) or 15 mg/kg (cANK6r) versus i.v. 3.3 mg/kg, plasma AUC %ID; for brain/plasma ratio: 24 h after administration
Description: The pharmacokinetic profiles were investigated in 180 male C57Bl/6N mice aged 13-14 weeks, weighing about 27.4 g in average. Mice were ordered at Charles River (Germany) and housed at least one week under standard housing conditions (12/12 h light-dark cycle, approximately 22°C room temperature and 54% humidity; water and food available ad libitum) in the animal facility of the Forschungszentrum Jülich GmbH before the experiments were carried out. All animal experiments were approved by the Animal Protection Committee of the local government according to the German Protection of Animals Act (LANUV, North-Rhine-Westphalia, Germany, Az.84-02.04.2017.A029).
To determine the concentration-time profiles of ANK6, tANK6, and cANK6r in murine brain, plasma, liver, kidney, and cerebrospinal fluid (CSF) after i.v. and p.o. administration, mixed solutions of non-labelled and ^3H-labelled peptides were prepared. The administered solutions contained 1 mg/mL (i.v.) or 3 mg/mL (p.o.) of the respective D-peptide including small amounts of ^3H-labelled peptides (0.54μg/mL ^3H-ANK6, 1.79μg/mL ^3H-tANK6, or 0.98μg/mL ^3H-cANK6r). Doses were administered by body weight: i.v. 3.3 mg/kg, ANK6 & tANK6 p.o. 10 mg/kg, cANK6r p.o. 15 mg/kg. Three male C57Bl/6N mice aged 13-14 weeks were investigated per time point whereby individual outliers were excluded from further evaluation. Organs were harvested as follows: i.v. 5, 10, 30, 60, 120, 240, 360, 1080, 1440 min; p.o.: 10, 20, 30, 60, 120, 240, 360, 1080, 1440 min.
Animals whose CSF was not extracted were anesthetized with isoflurane (cp-pharma, Germany) inhalation approximately 2 min before each organ harvesting time point. Afterwards, blood was taken by cardiac puncture and the heparinized blood was centrifuged (3000 g, 5 min, 4°C) to get plasma. The plasma in the supernatant was separated and 1:1 diluted with PBS. The right brain hemisphere, 200 mg of the big liver lobe, and the right kidney were removed, weighed, and homogenized in 500μL PBS (Precellys Ceramic Kit 1.4 mm, Precellys 24, Bertin technologies SAS, France). 100μL of the diluted plasma, the homogenized brain, liver, or kidney (in triplicates), or 1–5μL (exactly determined) of the extracted CSF (extraction procedure see below, single determination) were mixed with 10 mL scintillation cocktail (Ultima Gold XR, PerkinElmer, USA). The mixture was incubated overnight (100 rpm, room temperature).
Animals whose CSF was extracted (organ harvesting time points: 60 min, 240 min, 1440 min) were i.p. anesthetized with ketamine/medetomidine approximately 20 min before each sampling time point. When the mouse was in deep narcosis, the cisterna magna was laid free and punctuated with a small capillary to extract about 5μL of CSF as described before. Afterwards, cardiac puncture, organ extractions, and sample preparations were performed as described above.
Quantification of the amount of ^3H-labelled D-peptides was performed with a LSC and the results (dpm/sample) were converted into mg/mL or % injected dose (% ID)/mL for plasma and for CSF, or in mg/g or % ID/g for brain, liver, and kidney as described before. Total peptide concentrations in the samples were back-calculated from the measured ^3H-labelled peptides’ radioactivity as described before [[20, 25, 26, 29]].
The determined peptide concentrations were plotted over time to allow for comparison of all peptides’ uptake into brain, plasma, liver, kidney, and CSF. Concentrations at 0 min were set to 0 % ID/mL or 0 % ID/g except for plasma concentrations after i.v. administration. There, concentrations were linearly back-extrapolated based on the first two measured time points (5 min, 10 min).
To calculate the pharmacokinetic parameters of ANK6, tANK6, and cANK6r for plasma and brain, concentration-time profiles were analyzed. […]

[2] = Free drug fraction (fu) in human plasma predicted from HSA and AGP affinities; format: in vitro ADME; conditions: predicted from affinities to HSA and AGP, at 0.01 μM peptide (blood level 4 h after oral administration)
Description: Plasma protein binding (PPB) to human serum albumin (HSA) and α1-acid glycoprotein (AGP) of ANK6, tANK6, and cANK6r was analyzed according to the manufacturer’s protocol of TRANSIL^XL HSA and AGP binding kits (Sovicell GmbH, Germany). To cover a larger range of HSA and AGP concentrations, the bead concentrations in the kit were modified. For detection, a mixture of ^3H-labelled and non-labelled ANK6, tANK6, and cANK6r (final concentrations of 5μM) was added to different concentrations of HSA (7.4μM to 420μM, 10–12 different concentrations) or AGP beads (0.04μM to 3μM, 9–12 different concentrations). The amount of unbound ANK6, tANK6, and cANK6r (in %) to HSA or AGP, respectively, was determined by liquid scintillation counter (LSC) measurements. The dissociation constants (KD) as well as the free drug fractions (fu) in human plasma were calculated as described before. Calculations were based on peptide concentrations detected in the blood 4 h after single oral administration of 10 mg/kg: 0.01μM ANK6, 0.01μM tANK6, and 0.01μM cANK6r.

[3] = i.v. 3.3 mg/kg, back-extrapolated to 0 min
[4] = p.o. 10 mg/kg (ANK6, tANK6) or 15 mg/kg (cANK6r)

| Compound | AUC %ID,0 - 1440, brain ([1]; i.v. 3.3 mg/kg) | CL, terminal plasma clearance ([1]; i.v. 3.3 mg/kg) | MRT, plasma ([1]; i.v. 3.3 mg/kg) | t1/2, terminal half-life, plasma ([1]; i.v. 3.3 mg/kg) | tmax, brain ([1]; i.v. 3.3 mg/kg) | tmax, plasma ([1]; i.v. 3.3 mg/kg) | λz, terminal elimination rate constant, plasma ([1]; i.v. 3.3 mg/kg) | Cmax, brain ([1]; i.v. 3.3 mg/kg) | Cmax, plasma [1, 3] | AUC %ID,0 - 1440, plasma ([1]; i.v. 3.3 mg/kg) | AUC %ID,0 - 1440, brain [1, 4] | CL, terminal plasma clearance [1, 4] | MRT, plasma [1, 4] | t1/2, terminal half-life, plasma [1, 4] | tmax, brain [1, 4] | tmax, plasma [1, 4] | λz, terminal elimination rate constant, plasma [1, 4] | F (AUC %ID), oral bioavailability [1] | Cmax, brain [1, 4] | Cmax, plasma [1, 4] | also measured |
| --- | --- | --- | --- | --- | --- | --- | --- | --- | --- | --- | --- | --- | --- | --- | --- | --- | --- | --- | --- | --- | --- |
| CC[C@@H](C)[C@@H](NC(=O)[C@@H](CCCNC(=N)N)NC(=O)[C@@H](CCCCN)NC(=O)[C@H](N)CCCNC(=N)N)C(=O)N[C@H](CCCNC(=N)N)C(=O)N[C@H](CC(C)C)C(=O)N[C@@H](C(=O)N[C@@H](C(=O)N[C@H](CCCCN)C(=O)N[C@H](CCCCN)C(=O)N[C@H](CCCCN)C(=O)N[C@H](CCCNC(=N)N)C(N)=O)[C@H](C)O)C(C)C [ANK6] (H-[dR][dK][dR][dI][dR][dL][dV][dT][dK][dK][dK][dR]-NH2; N-terminus assumed) | 35.8 min*% ID/g | 32.0 mL/min/kg | 3 h | 15 h | 0.083 h | 0 h | 0.00077 min⁻¹ | 0.07 % ID/g | 3.17 % ID/mL | 91.7 min*% ID/mL | 11.0 min*% ID/g | 174.5 mL/min/kg | 10 h | 22 h | 1 h | 2 h | 0.00054 min⁻¹ | 11.8% | 0.01 % ID/g | 0.02 % ID/mL | peptide concentration detected in the blood [1]: 0.01 µM; CSF levels ([1]; about 60 min after both types of administration (i.v., p.o.)): Extraordinary high CSF levels; AUC %ID,0 - 1440, plasma [1, 4]: 10.8 min*% ID/mL; overall fu in plasma (fraction unbound) [2]: 1.43% |
| CC[C@@H](C)[C@H]1NC(=O)[C@@H](CCCNC(=N)N)NC(=O)[C@@H](CCCCN)NC(=O)[C@@H](CCCNC(=N)N)NC(=O)[C@@H](CCCNC(=N)N)NC(=O)[C@@H](CCCNC(=N)N)NC(=O)[C@@H](CCCCN)NC(=O)[C@@H](CCCCN)NC(=O)[C@@H](CCCCN)NC(=O)[C@@H]([C@H](C)O)NC(=O)[C@@H](C(C)C)NC(=O)[C@@H](CC(C)C)NC(=O)[C@@H](CCCNC(=N)N)NC1=O [cANK6r] (cyclo([dR][dK][dR][dI][dR][dL][dV][dT][dK][dK][dK][dR][dR])) | 85.6 min*% ID/g | 18.4 mL/min/kg | 2 h | 18 h | 0.083 h | 0 h | 0.00064 min⁻¹ | 0.12 % ID/g | 3.29 % ID/mL | 181.0 min*% ID/mL | 19.1 min*% ID/g | 135.5 mL/min/kg | 9 h | 30 h | 6 h | 1 h | 0.00039 min⁻¹ | 9.9% | 0.02 % ID/g | 0.05 % ID/mL | brain/plasma ratio ([1]; p.o.): 1.17; AUC %ID,0 - 1440, plasma [1, 4]: 17.9 min*% ID/mL; overall fu in plasma (fraction unbound) [2]: 1.36% |
| CC[C@@H](C)[C@@H](NC(=O)[C@@H](CCCNC(=N)N)NC(=O)[C@@H](CCCCN)NC(=O)[C@H](N)CCCNC(=N)N)C(=O)N[C@H](CCCNC(=N)N)C(=O)N[C@H](CC(C)C)C(=O)N[C@@H](C(=O)N[C@@H](C(=O)N[C@H](CCCCN)C(=O)N[C@H](CCCCN)C(=O)N[C@H](CCCCN)C(=O)N[C@H](CCCNC(=N)N)C(=O)N[C@H](CCCNC(=N)N)C(=O)N[C@H](CCCCN)C(=O)N[C@H](CCCNC(=N)N)C(=O)N[C@@H](C(=O)N[C@H](CCCNC(=N)N)C(=O)N[C@H](CC(C)C)C(=O)N[C@@H](C(=O)N[C@@H](C(=O)N[C@H](CCCCN)C(=O)N[C@H](CCCCN)C(=O)N[C@H](CCCCN)C(=O)N[C@H](CCCNC(=N)N)C(N)=O)[C@H](C)O)C(C)C)[C@H](C)CC)[C@H](C)O)C(C)C [tANK6] (H-[dR][dK][dR][dI][dR][dL][dV][dT][dK][dK][dK][dR][dR][dK][dR][dI][dR][dL][dV][dT][dK][dK][dK][dR]-NH2; N-terminus assumed) | 56.6 min*% ID/g | 88.9 mL/min/kg | 7 h | 18 h | 0.5 h | 0 h | 0.00063 min⁻¹ | 0.06 % ID/g | 0.40 % ID/mL | 26.1 min*% ID/mL | 22.5 min*% ID/g | 113.0 mL/min/kg | 11 h | 31 h | 18 h | 4 h | 0.00038 min⁻¹ | 49.4% | 0.02 % ID/g | 0.02 % ID/mL | peptide concentration detected in the blood [1]: 0.01 µM; brain/plasma ratio ([1]; i.v.): 6.89; AUC %ID,0 - 1440, plasma [1, 4]: 12.9 min*% ID/mL; overall fu in plasma (fraction unbound) [2]: 0.29% |
